Experimental data taken from patent US9957264B2 (Merck Sharp & Dohme Corp., priority 2013, dated 2018).
pIC50: −log10 of the molar value.

How the values were obtained:
[1] = molecular target: JAK1 (recombinant purified GST-tagged catalytic domain) (Homo sapiens (Human), UniProt P23458); test: Jak Biochemical HTRF Assay (JAK1); details: [ATP] 31.8 μM
Procedure, shortened: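 Phosphorylation of a common biotinylated peptide by each catalytic domain is measured by HTRF. The ATP-started reaction runs 120 min at room temperature before EDTA quench and detection.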

[2] = molecular target: JAK2 (recombinant purified GST-tagged catalytic domain) (Homo sapiens (Human), UniProt O60674); test: Jak Biochemical HTRF Assay (JAK2); details: [ATP] 8.5 μM
Sequence of JAK2 (recombinant purified GST-tagged catalytic domain) (O60674 849-1124): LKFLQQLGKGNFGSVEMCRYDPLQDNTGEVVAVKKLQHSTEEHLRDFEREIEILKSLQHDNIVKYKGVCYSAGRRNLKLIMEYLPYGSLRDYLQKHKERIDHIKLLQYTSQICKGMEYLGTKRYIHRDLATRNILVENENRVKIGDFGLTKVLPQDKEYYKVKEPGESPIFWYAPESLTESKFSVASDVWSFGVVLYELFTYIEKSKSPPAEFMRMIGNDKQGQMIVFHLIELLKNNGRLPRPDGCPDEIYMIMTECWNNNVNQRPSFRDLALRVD

Sequence of JAK1 (recombinant purified GST-tagged catalytic domain) (P23458 875-1153): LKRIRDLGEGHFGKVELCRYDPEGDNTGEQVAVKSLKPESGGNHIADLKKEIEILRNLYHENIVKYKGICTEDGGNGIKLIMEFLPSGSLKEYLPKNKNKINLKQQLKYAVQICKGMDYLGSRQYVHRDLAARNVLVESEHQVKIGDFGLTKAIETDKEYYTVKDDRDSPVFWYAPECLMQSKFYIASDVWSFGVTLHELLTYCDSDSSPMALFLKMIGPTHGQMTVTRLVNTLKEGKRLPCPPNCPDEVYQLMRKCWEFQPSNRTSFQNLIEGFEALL

| Compound | pIC50 [1] | pIC50 [2] |
| --- | --- | --- |
| Cc1cc(Nc2nn([C@@]3(CC#N)CCOC[C@H]3F)c3cc[nH]c(=O)c23)ccc1C(=O)N1CCOCC1 (single isomer, unassigned) [Example 5-257, 2-((3S,4S or 3R,4R)-3-fluoro-4-(3-(3-methyl-4-(morpholine-4-carbonyl)phenylamino)-4-oxo-4,5-dihydropyrazolo[4,3-c]pyridin-1-yl)-tetrahydro-2H-pyran-4-yl)acetonitrile] | 8.68 | 8.50 |
| COC(=O)[C@H]1CC[C@](CC#N)(n2nc(Nc3ccc(S(C)(=O)=O)cc3)c3c(=O)[nH]ccc32)CO1 (single isomer, unassigned) [Example 5-34, (2S,5S or 2R,5R)-methyl 5-(cyanomethyl)-5-(3-((4-(methylsulfonyl)phenyl)amino)-4-oxo-4,5-dihydro-1H-pyrazolo[4,3-c]pyridin-1-yl)tetrahydro-2H-pyran-2-carboxylate] | 8.32 | 7.65 |
| N#CCC1(n2nc(Nc3ccc(C(N)C(F)(F)F)cc3)c3c(=O)[nH]ccc32)CCCC1 (single isomer, unassigned) [Example 5-89, (R or S)-2-(1-(3-((4-(1-amino-2,2,2-trifluoroethyl)phenyl)amino)-4-oxo-4,5-dihydro-1H-pyrazolo[4,3-c]pyridin-1-yl)cyclopentyl)acetonitrile] | 9.30 | 8.76 |
| CS(=O)(=O)c1ccc(Nc2nn([C@@]3(CC#N)CCCOC3)c3cc[nH]c(=O)c23)cc1 [Example 5-30, (R)-2-(3-(3-((4-(methylsulfonyl)phenyl)amino)-4-oxo-4,5-dihydro-1H-pyrazolo[4,3-c]pyridin-1-yl)tetrahydro-2H-pyran-3-yl)acetonitrile] | 7.90 | 7.24 |
| CN(C)CC(=O)N1CCC(CC#N)(n2nc(Nc3ccc(S(=O)(=O)N(C)C)cc3)c3c(=O)[nH]ccc32)CC1 [Example 9-4, 4-({1-[4-(cyanomethyl)-1-(N,N-dimethylglycyl)piperidin-4-yl]-4-oxo-4,5-dihydro-1H-pyrazolo[4,3-c]pyridin-3-yl}amino)-N,N-dimethylbenzenesulfonamide] | 9.19 | 8.29 |
| CC(C)(C)OC(=O)[C@H]1CC[C@](CC#N)(n2nc(Nc3ccc(S(C)(=O)=O)cc3)c3c(=O)[nH]ccc32)CO1 [Example 5-40, (2R,5R)-tert-butyl 5-(cyanomethyl)-5-(3-((4-(methylsulfonyl)phenyl)amino)-4-oxo-4,5-dihydro-1H-pyrazolo [4,3-c]pyridin-1-yl) tetrahydro-2H-pyran-2-carboxylate] | 8.69 | 7.84 |
| CC(C)S(=N)(=O)c1ccc(Nc2nn([C@]3(CC#N)CCCOC3)c3cc[nH]c(=O)c23)cc1 (single isomer, unassigned) [Example 5-232, 2-((3S)-3-(4-oxo-3-((4-(propan-2-yl-(S or R)-sulfonimidoyl)phenyl)amino)-4,5-dihydro-1H-pyrazolo[4,3-c]pyridin-1-yl)tetrahydro-2H-pyran-3-yl)acetonitrile] | 9.57 | 9.22 |
| CCN(CC)S(=O)(=O)c1ccc(Nc2nn(C3(CC#N)CCCC3)c3cc[nH]c(=O)c23)cc1 [Example 5-136, 4-((1-(1-(cyanomethyl)cyclopentyl)-4-oxo-4,5-dihydro-1H-pyrazolo[4,3-c]pyridin-3-yl)amino)-N,N-diethylbenzenesulfonamide] | 9.25 | 9.00 |
| CC(C)(C)OC(=O)[C@@H]1CC[C@@](CC#N)(n2nc(Nc3ccc4nc(N5CC6CCC(C5)O6)ccc4c3)c3c(=O)[nH]ccc32)CO1 [Example 5-229, (2S,5S)-tert-butyl 5-(3-((2-(8-oxa-3-azabicyclo[3.2.1]octan-3-yl)quinolin-6-yl)amino)-4-oxo-4,5-dihydro-1H-pyrazolo[4,3-c]pyridin-1-yl)-5-(cyanomethyl) tetrahydro-2H-pyran-2-carboxylate] | 9.47 | 8.86 |
| CN(C(C)(C)C)S(=O)(=O)c1ccc(Nc2nn(C3(CC#N)CCOCC3)c3cc[nH]c(=O)c23)cc1 [Example 5-253, N-(tert-butyl)-4-((1-(4-(cyanomethyl)tetrahydro-2H-pyran-4-yl)-4-oxo-4,5-dihydro-1H-pyrazolo[4,3-c]pyridin-3-yl)amino)-N-methylbenzenesulfonamide] | 9.14 | 8.85 |
| N#CCC1(n2nc(Nc3ccc(S(=O)(=O)C(F)F)cc3)c3c(=O)[nH]ccc32)CCN(c2ccc(C#N)cn2)CC1 [Example 15-3, 6-(4-(cyanomethyl)-4-(3-((4((difluoromethyl)sulfonyl)phenyl)amino)-4-oxo-4,5-dihydro-1H-pyrazolo[4,3-c]pyridin-1-yl)piperidin-1-yl)nicotinonitrile] | 9.60 | 9.59 |
| CC(C)(C)OC(=O)[C@@H]1CC[C@@](CC#N)(n2nc(Nc3ccc(C4(C(F)(F)F)CCCCN4)cc3)c3c(=O)[nH]ccc32)CO1 (single isomer, unassigned) [Example 5-286, (2S,5S)-tert-butyl 5-(cyanomethyl)-5-(4-oxo-3-((4-((S or R)-2-(trifluoromethyl)piperidin-2-yl)phenyl)amino)-4,5-dihydro-1H-pyrazolo[4,3-c]pyridin-1-yl)tetrahydro-2H-pyran-2-carboxylate] | 9.62 | 9.48 |

Stronger by pIC50 [1], values ahead:

| pIC50 [1] | pIC50 [2] | Compound |
| --- | --- | --- |
| 9.89 | 9.54 | CN(C)S(=O)(=O)c1ccc(Nc2nn([C@]3(CC#N)CCCOC3)c3cc[nH]c(=O)c23)cc1 [Example 5-28, (S)-4-((1-(3-(cyanomethyl)tetrahydro-2H-pyran-3-yl)-4-oxo-4,5-dihydro-1H-pyrazolo[4,3-c]pyridin-3-yl)amino)-N,N-dimethyl benzenesulfonamide] |
| 9.89 | 8.87 | Cc1cc(Nc2nn([C@]3(CC#N)CC[C@@H](C(=O)OC(C)(C)C)OC3)c3cc[nH]c(=O)c23)ccc1-n1cccn1 [Example 5-219, (2S,5S)-tert-butyl 5-(cyanomethyl)-5-(3-((3-methyl-4-(1H-pyrazol-1-yl)phenyl)amino)-4-oxo-4,5-dihydro-1H-pyrazolo [4,3-c]pyridin-1-yl) tetrahydro-2H-pyran-2-carboxylate] |
| 9.89 | 9.48 | COC(=O)N1CCC(CC#N)(n2nc(Nc3ccc(C(C)(O)C(F)(F)F)cc3)c3c(=O)[nH]ccc32)CC1 (single isomer, unassigned) [Example 5-142, (R or S)-methyl 4-(cyanomethyl)-4-(4-oxo-3-((4-(1,1,1-trifluoro-2-hydroxypropan-2-yl)phenyl)amino)-4,5-dihydro-1H-pyrazolo[4,3-c]pyridin-1-yl)piperidine-1-carboxylate] |
| 9.92 | 9.64 | CC(C)(C)OC(=O)N1CCC(CC#N)(n2nc(Nc3ccc(S(N)(=O)=O)cc3)c3c(=O)[nH]ccc32)CC1 [Example 5-4, tert-butyl 4-(cyanomethyl)-4-{4-oxo-3-[(4-sulfamoylphenyl)amino]-4,5-dihydro-1H-pyrazolo[4,3-c]pyridin-1-yl}piperidine-1-carboxylate] |
| 9.92 | 9.57 | CC(C)OC(=O)N1CCC(CC#N)(n2nc(Nc3ccc(S(=O)(=O)N(C)C)cc3)c3c(=O)[nH]ccc32)CC1 [Example 10-6, isopropyl 4-(cyanomethyl)-4-(3-((4-(N,N-dimethylsulfamoyl)phenyl)amino)-4-oxo-4,5-dihydro-1H-pyrazolo[4,3-c]pyridin-1-yl)piperidine-1-carboxylate] |
| 10.00 | 9.62 | CC(F)(F)C(=O)N1CCC(CC#N)(n2nc(Nc3ccc(S(C)(=O)=O)cc3)c3c(=O)[nH]ccc32)CC1 [Example 17, 2-(1-(2,2-difluoropropanoyl)-4-(3-((4-(methylsulfonyl)phenyl)amino)-4-oxo-4,5-dihydro-1H-pyrazolo[4,3-c]pyridin-1-yl)piperidin-4-yl)acetonitrile] |
| 10.00 | 9.70 | CC(C)(C)OC(=O)[C@@H]1CC[C@@](CC#N)(n2nc(Nc3ccc4c(c3)CN(C3CCCC3)C4=O)c3c(=O)[nH]ccc32)CO1 [Example 5-102, (2S,5S)-tert-butyl 5-(cyanomethyl)-5-(3-((2-cyclopentyl-1-oxoisoindolin-5-yl)amino)-4-oxo-4,5-dihydro-1H-pyrazolo[4,3-c]pyridin-1-yl)tetrahydro-2H-pyran-2-carboxylate] |
| 10.00 | 9.82 | CC(F)(F)C(=O)N1CCC(CC#N)(n2nc(Nc3ccc(S(=O)(=O)C(C)(C)C)cc3)c3c(=O)[nH]ccc32)CC1 [Example 5-59, 2-(4-(3-((4-(tert-butylsulfonyl)phenyl)amino)-4-oxo-4,5-dihydro-1H-pyrazolo[4,3-c]pyridin-1-yl)-1-(2,2-difluoro-propanoyl)piperidin-4-yl)acetonitrile] |
| 10.10 | 9.82 | COC(=O)N1CCC(CC#N)(n2nc(Nc3ccc4c(c3)CN(C(C)(C)C)S4(=O)=O)c3c(=O)[nH]ccc32)CC1 [Example 5-71, methyl 4-{3-[(2-tert-butyl-1,1-dioxo-2,3-dihydro-1,2-benzothiazol-5-yl)amino]-4-oxo-1H,4H,5H-pyrazolo [4,3-c]pyridin-1-yl}-4-(cyanomethyl)piperidine-1-carboxylate] |
| 10.15 | 9.57 | CC(C)(C)OC(=O)[C@@H]1CC[C@@](CC#N)(n2nc(Nc3ccc(C(N)C(F)(F)F)cc3)c3c(=O)[nH]ccc32)CO1 (stereo partly drawn) [Example 5-104, (2S,5S)-tert-butyl 5-(3-((4-(1-amino-2,2,2-trifluoroethyl)phenyl)amino)-4-oxo-4,5-dihydro-1H-pyrazolo[4,3-c]pyridin-1-yl)-5-(cyanomethyl)tetrahydro-2H-pyran-2-carboxylate] |
| 10.15 | 9.96 | CC(O)(c1ccc(Nc2nn([C@@]3(CC#N)CCCC[C@H]3F)c3cc[nH]c(=O)c23)cc1)C(F)(F)F (single isomer, unassigned) [Example 5-86, {(1R,2R)-2-fluoro-1-[4-oxo-3-({4-[(1R or 1S)-2,2,2-trifluoro-1-hydroxy-1-methylethyl]phenyl}amino)-4,5-dihydro-1H-pyrazolo[4,3-c]pyridin-1-yl]cyclohexyl}acetonitrile] |
